Data published in patent US6375946B1, “Enhanced activation of natural killer cells using an NK cell activator and a hydrogen peroxide scavenger or inhibitor” (Maxim Pharmaceuticals, Inc., priority 1994, dated 2002).

Assays:
[1] = system: NK cells (cytotoxicity against K562 target cells); assay: cells; details: for reversal of inhibition of NK cells induced by H2O2: catalase 20 U/ml, data not shown; for time of addition at which the NK cell suppressive signal is inhibited: histamine 10^−4 M or catalase 20 U/ml added at time points after assay start; for effect on NK-cell-mediated killing of tumor cells in the absence of monocytes: no monocytes, NK cells unactivated or IL-2 activated
Experimental: Using blood obtained from a healthy human blood donor, we studied the effects of catalase on NK cell-mediated killing of tumor cells. K562 cells, from an NK sensitive erythroleukemic cell line, were used as target cells in all experiments. Washed cells (10×10^6 cells/ml) were incubated with ^51Cr (Amersham) at a concentration of 150 FCi/ml cell suspension for 2-4 hours. After centrifugation and resuspension in cell culture medium, 10^4 cells in 50 FL portions were added to the effector cells in microplate wells.
In the first set of experiments, human NK cells alone (1.5×10^5 cells/well) were added to the K562 target cells. […] The cells were then exposed to catalase (Boehringer-Mannheim) at concentrations of 0 to 100 U/ml. These same conditions were repeated using human NK cells admixed with 30% human peripheral blood monocytes, recovered by centrifugal elutriation, added to the target K562 cells.
After incubation at 37EC for 16 hours, supernatant fluids were collected by a tissue collecting system (Amersham) and assayed for radioactivity in a gamma counter. Maximum ^51Cr release was determined in target cell cultures treated with Triton-X. NK cell cytotoxicity was calculated as cell lysis % according to the following formula: [formula]
To study the relationship between the monocyte-derived inhibitory signal and the respiratory burst activity of monocytes, we added catalase and various other scavengers of reactive oxygen metabolites to NK cells, alone or admixed with monocytes. We then measured the cytotoxicity of the NK cells against NK cell sensitive K562 target cells as described above.
Cell culture medium (control), histamine (10^−4 M), or catalase (20 U/ml), was added to either enriched NK cells alone or a mixture of NK cells and monocytes (1.5×10^5 cells/well). These mixtures were then incubated with K562 target cells in sextuplicate in microplates in a total volume of 200 Fl and assayed for microcytotoxicity.
Culture medium (control) or H2O2 at concentrations between 0-10 FM was added to NK cell enriched lymphocytes for assay of cytotoxicity against ^51Cr K562 target cells as described above.
MPO (100 U/ml) and H2O2 at concentrations between 0-10 FM were added to NK cell enriched lymphocytes for assay of cytotoxicity against ^51Cr K562 target cells as described above.
A mixture of enriched NK cells and monocytes were treated with culture medium (control), histamine (10^−4 M), or catalase (20 U/ml) and assayed for microcytotoxicity against target K562 cells as described above in connection with Example 1. […] The data shown is cell lysis % ±s.e.m. of sextuplicates.

[2] = system: monocytes; assay: Luminol-enhanced chemiluminescence (respiratory burst) of elutriated monocytes; format: cell-based, human
Experimental: Formylmethionyl-leucyl-phenylalanine was dissolved to 10^−2 M in dimethyl sulfoxide and subsequently diluted in Krebs-Ringer phosphate buffer supplemented with glucose (10 mM), Ca^2+ (1 mM), and Mg^2+ (1.5 mM).
In a second set of experiments, effects of histamine and H2R-interactive compounds on the respiratory burst activity, as measured by the luminol-enhanced CL response of enriched, elutriated monocytes, were studied. Monocytes were treated with culture medium (control), histamine (10^−5 M), sodium azide (10^−5 M), or histamine and sodium azide as described below. Emission of CL was recorded after addition of fMLP at time=0.
To assess whether histamine acted by inhibiting the generation of H2O2 or by reducing the availability of peroxidase, we next studied the effects of histamine in monocytes treated with sodium azide to inhibit endogenous myeloperoxidase (MPO) and with exogenous, azide-insensitive peroxidase (HRP) in excess.
To exclude non-specific effects of ranitidine, we used a ranitidine analog (AH20239AA; […]; Glaxo) in which the thioether of ranitidine is replaced by an ether, thereby strongly reducing its H2R antagonist properties. In these experiments, monocytes were treated with histamine (10^−5 M) together with ranitidine or AH20239AA at final concentrations indicated in FIG. 7. All cells were treated with fMLP at time=0. Peak CL recorded in untreated monocytes (control) was 2.5×10^7 cpm.

[3] = system: RBC
Experimental: (§1) Further, we used an assay system in which lysis of elutriated , ^51Cr -labelled RBC was measured in microplates.

[4] = system: NK cells (cytotoxicity against K562 target cells)
Experimental: In additional experiments, NK cell enriched lymphocytes were pretreated in petri dishes with culture medium (control), catalase or histamine, in the concentrations indicated below in Table II, in the presence or absence of monocytes. After 1 hour incubation, nonadherent lymphocytes were recovered, washed twice, and assayed for cytotoxicity as described above. We wished to determine whether the NK cell inhibitory signal was reversible by removal of monocytes and removal of monocyte-derived products. […] Data are cell lysis % ±s.e.m. of sextuplicates and are the results of 2 separate experiments.

[5] = histamine 10^−4 M, cell free
Experimental: The reaction mixture contained 0.8 ml elutriated monocytes (5×10^6 cells/ml).
as §1

[6] = system: NK cells; assay: IL-2-induced NK cell proliferation (3H-methyl-thymidine incorporation); format: cell-based, human; details: histamine 10^−4 M or catalase 20 U/ml, IL-2 50 U/ml, 48 hours
Experimental: During the last 8 hours of incubation, cells were pulsed with ^3H-methyl-thymidine (specific activity […]; New England Nuclear Corp.; 1 FCi/2×10^5 cells). Following incubation, the cells were collected on glass fiber filters with an automatic cell harvester and cell-incorporated ^3H-methyl-thymidine was estimated by liquid scintillography.

[7] = system: YAC-1 mouse lymphoma cells; assay: NK cell-mediated clearance of 51Cr-labeled YAC-1 lymphoma cells from lungs in vivo; set-up: species or system Swiss Albino mice; details: 100 U/kg intravenously, 2 hours, four experiments
Experimental: FIG. 2 graphically depicts the activation of NK cell-mediated clearance of YAC-1 lymphoma cells in vivo by catalase. Seventy-five thousand YAC-1 cells labeled with ^51Cr were injected intravenously into male or female 4-6-week-old Swiss Albino mice, together with vehicle (control; open bars) or catalase (100 U/kg; filled bars). Two hours after the inoculation of tumor cells, the mice were sacrificed by cervical dislocation. […] Results from 4 separate experiments are shown. Each bar represents the mean “s.e.m. of 3-5 animals.
Seventy-five thousand ^51Cr-labeled, NK cell-sensitive YAC-1 mouse lymphoma cells were injected intravenously into male or female 4 to 6 week old Swiss Albino mice, together with vehicle (control) or 100 U/kg catalase. Two hours after inoculation with the tumor cells, the mice were sacrificed by cervical dislocation. The lungs were removed and placed in test tubes in a gamma-counter, and the radioactivity in the lung tissue was measured. The radioactivity in lung tissue is an inverse measure of NK cell-mediated killing of tumor cells in vivo (see Hanna et al., JNCI 65:801 (1980)), and is expressed as a percent of the ^51Cr that is retained in lungs immediately after inoculation of radiolabeled tumor cells.

Molecule: CNC(=C[N+](=O)[O-])NCCOCc1ccc(CN(C)C)o1 [AH20239AA]
- potency relative to ranitidine in antagonizing effects of histamine on suppression of NK cell function by monocytes (fold less potent) [1]: more than 100 fold
- potency relative to ranitidine in antagonizing inhibition of respiratory burst activity by histamine (fold less potent) ([2]; histamine 10^−5 M): more than 100 fold

Molecule: CN(C)CCCSC(=N)N [Dimaprit]
- effect on the respiratory burst of monocytes (H2R-interactive compounds) [2]: mimicked the effect of histamine
- incubation time until effect on respiratory burst is maximal ([2]; data not shown): 10 to 15 min

Molecule: OO [H2O2, hydrogen peroxide]
- effect on cytotoxicity of enriched NK cells [1]: effectively suppressed
- EC50 ([1]; Homo sapiens, K562, read-out: ED50 of suppression of NK cell cytotoxicity): ~2000 nM
- lysis of RBC ([3]; H2O2 5×10^−5 M, 10^5 RBC): approximately 50%
- inhibition of NK cell cytotoxicity after pretreatment and washing [4]: sufficient to effectively inhibit

Molecule: CC(=O)N(O)CCCCCNC(=O)CCC(=O)N(O)CCCCCNC(=O)CCC(=O)N(O)CCCCCN [deferox, deferoxamine]
- effect on monocyte-induced inhibition of baseline NK cell cytotoxicity [1]: ineffective

Molecule: NCCc1c[nH]cn1 [histamine]
- CL recorded with H2O2 and/or MPO or H2O2 and HRP [5]: unchanged
- effect on monocyte-induced inhibition of baseline NK cell cytotoxicity [1]: abrogated
- concentration at which histamine abrogates monocyte induced suppression of NK cells ([1]; NK cells with monocytes): exceeding 10^−7 M
- reversal of inhibition of NK cells induced by H2O2 [1]: not
- effect of histamine on monocyte induced suppression of NK cells in the presence of catalase ([1]; catalase present): ineffective
- time of addition at which the NK cell suppressive signal is inhibited [1]: within the first hour
- time to block respiratory burst activity ([2]; data not shown): within seconds
- effect on burst activity of unstimulated monocytes and induction of burst by fMLP ([2]; histamine 10^−5 M): effectively inhibited
- effect on fMLP induced CL response with sodium azide and exogenous HRP in excess ([2]; sodium azide 10^−5 M, HRP): inhibited
- effect on level of RBC killing induced by H2O2 ([3]; histamine 10^−4 M): did not alter
- reversal of monocyte-induced inhibition of IL-2-induced NK cell proliferation [6]: effectively reverse

Molecule: OC[C@@H](O)[C@@H](O)[C@H](O)[C@H](O)CO [mannitol]
- effect on monocyte-induced inhibition of baseline NK cell cytotoxicity [1]: ineffective

Molecule: CN(C)CCSC(=N)N [nor-dimaprit]
- effect on the respiratory burst of monocytes (H2R-interactive compounds) [2]: ineffective

Molecule: NCCS(=O)(=O)O [taurin]
- effect on monocyte-induced inhibition of baseline NK cell cytotoxicity [1]: ineffective

Molecule: catalase
- effect on monocyte-induced inhibition of baseline NK cell cytotoxicity [1]: completely abrogate
- concentration at which catalase reverses the monocyte suppressive signal ([1]; NK cells with monocytes): exceeding 10 U/ml
- concentration at which catalase reverses the monocyte suppressive signal ([1]; NK cells with monocytes, listed as Catalase): exceeding 5 U/ml
- reversal of inhibition of NK cells induced by H2O2 [1]: completely reversed
- time of addition at which the NK cell suppressive signal is inhibited [1]: within the first hour
- effect on NK-cell-mediated killing of tumor cells in the absence of monocytes [1]: does not affect
- effect on NK-cell-mediated killing of tumor cells in the absence of monocytes ([1]; listed as Catalase): had no effect
- NK cell-mediated killing of YAC-1 lymphoma cells in vivo (retained lung radioactivity) [7]: augmented
- reversal of monocyte-induced inhibition of IL-2-induced NK cell proliferation [6]: effectively reverse

Molecule: superoxide dismutase [SOD]
- effect on monocyte-induced inhibition of baseline NK cell cytotoxicity [1]: did not alter

B1: myeloperoxidase (protein, UniProt P05164 165-745, looked up)
Myeloperoxidase: VTCPEQDKYRTITGMCNNRRSPTLGASNRAFVRWLPAEYEDGFSLPYGWTPGVKRNGFPVALARAVSNEIVRFPTDQLTPDQERSLMFMQWGQLLDHDLDFTPEPAARASFVTGVNCETSCVQQPPCFPLKIPPNDPRIKNQADCIPFFRSCPACPGSNITIRNQINALTSFVDASMVYGSEEPLARNLRNMSNQLGLLAVNQRFQDNGRALLPFDNLHDDPCLLTNRSARIPCFLAGDTRSSEMPELTSMHTLLLREHNRLATELKSLNPRWDGERLYQEARKIVGAMVQIITYRDYLPLVLGPTAMRKYLPTYRSYNDSVDPRIANVFTNAFRYGHTLIQPFMFRLDNRYQPMEPNPRVPLSRVFFASWRVVLEGGIDPILRGLMATPAKLNRQNQIAVDEIRERLFEQVMRIGLDLPALNMQRSRDHGLPGYNAWRRFCGLPQPETVGQLGTVLRNLKLARKLMEQYGTPNNIDIWMGGVSEPLKRKGRVGPLLACIIGTQFRKLRDGDRFWWENEGVFSMQQRQALAQISLPRIICDNTGITTVSKNNIFMSNSYPRDFVNCSTLPALNLASWREAS
- potentiation of the suppressive effect of H2O2 on NK cells ([1]; MPO 100 U/ml with H2O2 0-10 FM): did not potentiate
- scavenging of H2O2 ([1]; MPO 100 U/ml with H2O2 0-10 FM): slightly but significantly scavenged
